Reference: US7893278B2, “CIS-imidazolines” (Hoffman-La Roche Inc., priority 2004, dated 2011)

Biological target: interaction between p53 and MDM2 proteins (recombinant GST-tagged MDM2) (Homo sapiens, UniProt Q00987)
Test: ELISA of inhibition of the interaction between p53 and MDM2 (GST-tagged MDM2 binding to immobilized p53-like peptide)
Settings: recombinant GST-tagged MDM2 / biotinylated p53-like peptide

Sequence of interaction between p53 and MDM2 proteins (recombinant GST-tagged MDM2) (Q00987 whole entry): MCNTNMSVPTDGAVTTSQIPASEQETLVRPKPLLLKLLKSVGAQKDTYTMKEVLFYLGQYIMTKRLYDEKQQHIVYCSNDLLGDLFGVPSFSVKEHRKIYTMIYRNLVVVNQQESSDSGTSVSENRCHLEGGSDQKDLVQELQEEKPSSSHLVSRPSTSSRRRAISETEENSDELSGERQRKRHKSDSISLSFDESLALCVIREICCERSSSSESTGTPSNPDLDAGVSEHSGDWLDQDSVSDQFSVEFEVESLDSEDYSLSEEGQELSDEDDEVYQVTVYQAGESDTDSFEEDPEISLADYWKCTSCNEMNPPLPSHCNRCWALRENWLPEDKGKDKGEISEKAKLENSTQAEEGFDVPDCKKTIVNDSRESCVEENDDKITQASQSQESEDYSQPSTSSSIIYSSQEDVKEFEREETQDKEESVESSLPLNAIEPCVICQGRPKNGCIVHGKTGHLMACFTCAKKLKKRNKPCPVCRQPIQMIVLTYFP

IC50: 71 nM
SMILES: COc1ccc(C2=N[C@@H](c3ccc(Cl)cc3)[C@@H](c3ccc(Cl)cc3)N2C(=O)N2CCC(N3CCCC3)CC2)c(OC(C)C)c1 [Example 5, [(4S,5R)-4,5-Bis-(4-chloro-phenyl)-2-(2-isopropoxy-4-methoxy-phenyl)-4,5-dihydro-imidazol-1-yl]-(4-pyrrolidin-1-yl-piperidin-1-yl)-methanone]
